According to ChEMBL document CHEMBL3102742, “Corallorazines from the myxobacterium Corallococcus coralloides” (J Nat Prod, 2014):
Calls of active or inactive are those of the source. The rule behind the calls is not given here.

Columns and labels:
[1] = molecular target: Procathepsin L (Homo sapiens) (UniProt P07711); experiment: Inhibition of cathepsin L (unknown origin) up to 10 ug/ml
[2] = molecular target: Cannabinoid receptor 2 (Homo sapiens) (UniProt P34972); experiment: Binding affinity to CB2 receptor (unknown origin) up to 10 ug/ml
Sequence of Cannabinoid receptor 2 (Homo sapiens) (P34972 whole entry, the tested form may be a part): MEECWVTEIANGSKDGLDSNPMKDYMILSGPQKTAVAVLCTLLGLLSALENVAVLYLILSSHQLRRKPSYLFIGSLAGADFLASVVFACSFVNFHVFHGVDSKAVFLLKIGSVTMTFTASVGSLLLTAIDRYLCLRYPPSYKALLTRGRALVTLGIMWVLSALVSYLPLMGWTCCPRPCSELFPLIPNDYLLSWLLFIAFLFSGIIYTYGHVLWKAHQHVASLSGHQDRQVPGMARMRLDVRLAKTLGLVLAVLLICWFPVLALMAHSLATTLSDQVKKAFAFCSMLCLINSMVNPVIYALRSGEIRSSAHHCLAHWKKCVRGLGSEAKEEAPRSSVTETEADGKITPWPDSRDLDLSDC

Aspergillus ruber = experiment: Antifungal activity against Eurotium rubrum DSM 62631 up to 1 mg/ml by agar diffusion method; type: functional
[3] = molecular target: Cannabinoid receptor 1 (Homo sapiens) (UniProt P21554); experiment: Binding affinity to CB1 receptor (unknown origin) up to 10 ug/ml
Sequence of Cannabinoid receptor 1 (Homo sapiens) (P21554 whole entry, the tested form may be a part): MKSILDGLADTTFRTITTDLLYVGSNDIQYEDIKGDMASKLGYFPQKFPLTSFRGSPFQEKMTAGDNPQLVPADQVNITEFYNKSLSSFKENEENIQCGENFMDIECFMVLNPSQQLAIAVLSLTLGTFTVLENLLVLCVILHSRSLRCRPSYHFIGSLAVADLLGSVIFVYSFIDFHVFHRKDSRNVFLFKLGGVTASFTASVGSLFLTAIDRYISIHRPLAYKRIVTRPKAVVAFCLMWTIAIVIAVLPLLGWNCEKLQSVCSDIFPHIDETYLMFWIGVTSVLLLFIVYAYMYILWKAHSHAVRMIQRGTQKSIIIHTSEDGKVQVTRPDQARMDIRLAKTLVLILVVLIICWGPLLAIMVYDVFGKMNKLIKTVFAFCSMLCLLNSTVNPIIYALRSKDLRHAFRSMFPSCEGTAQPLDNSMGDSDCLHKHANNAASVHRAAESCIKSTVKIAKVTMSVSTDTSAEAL

Mycotypha microspora = experiment: Antifungal activity against Mycotypha microspora up to 1 mg/ml by agar diffusion method; type: functional, organism-based
[4] = molecular target: Prothrombin (Homo sapiens) (UniProt P00734); experiment: Inhibition of human thrombin up to 10 ug/ml
[5] = molecular target: Cathepsin B (Homo sapiens) (UniProt P07858); experiment: Inhibition of cathepsin B (unknown origin) up to 10 ug/ml
Escherichia coli = experiment: Antibacterial activity against Escherichia coli DSM 498 up to 1 mg/ml by agar diffusion method; type: functional, organism-based
[6] = molecular target: Cathepsin S (Homo sapiens) (UniProt P25774); experiment: Inhibition of cathepsin S (unknown origin) up to 10 ug/ml
Sequence of Cathepsin S (Homo sapiens) (P25774 115-331 limits assumed): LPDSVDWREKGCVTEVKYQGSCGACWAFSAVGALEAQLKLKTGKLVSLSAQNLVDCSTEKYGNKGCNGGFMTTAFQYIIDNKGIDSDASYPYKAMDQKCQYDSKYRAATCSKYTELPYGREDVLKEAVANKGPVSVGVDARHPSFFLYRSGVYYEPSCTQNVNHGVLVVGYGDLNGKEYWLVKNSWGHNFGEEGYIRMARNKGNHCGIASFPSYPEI

Priestia megaterium = experiment: Antibacterial activity against Bacillus megaterium DSM 32 up to 1 mg/ml by agar diffusion method; type: functional, organism-based
Trypsin (Homo sapiens) = Trypsin (Homo sapiens) (UniProt P07477+P07478+P35030); experiment: Inhibition of trypsin (unknown origin) up to 10 ug/ml; type: protein assay
Microbotryum violaceum = experiment: Antifungal activity against Microbotryum violaceum up to 1 mg/ml by agar diffusion method; type: functional, organism-based
Homo sapiens = species on record: Homo sapiens; experiment: Inhibition of chymotrypsin (unknown origin) up to 10 ug/ml
[7] = molecular target: T1, Neutrophil elastase (Homo sapiens) (UniProt P08246); experiment: Inhibition of human leucocyte elastase up to 10 ug/ml
T1 sequence (whole entry): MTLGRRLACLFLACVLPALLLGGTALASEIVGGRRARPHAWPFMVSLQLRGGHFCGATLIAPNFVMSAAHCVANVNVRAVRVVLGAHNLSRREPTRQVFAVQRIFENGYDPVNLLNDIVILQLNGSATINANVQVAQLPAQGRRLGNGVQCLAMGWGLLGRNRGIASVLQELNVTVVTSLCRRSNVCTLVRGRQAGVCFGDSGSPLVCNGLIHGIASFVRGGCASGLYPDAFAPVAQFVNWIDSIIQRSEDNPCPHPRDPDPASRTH

Sequence of Procathepsin L (Homo sapiens) (P07711 114-333 limits assumed): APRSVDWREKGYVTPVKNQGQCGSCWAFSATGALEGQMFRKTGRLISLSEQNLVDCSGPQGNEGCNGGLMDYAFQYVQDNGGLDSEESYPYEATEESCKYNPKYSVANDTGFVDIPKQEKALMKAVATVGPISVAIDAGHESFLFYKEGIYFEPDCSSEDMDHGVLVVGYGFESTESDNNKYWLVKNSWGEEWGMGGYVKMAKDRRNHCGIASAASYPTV

inhibition [1]: inactive
Activity [2]: inactive
Activity [3]: inactive
inhibition [4]: inactive
inhibition [5]: inactive
inhibition [6]: inactive
inhibition (Trypsin (Homo sapiens)): inactive
inhibition (Homo sapiens): inactive
inhibition [7]: inactive
Structure (SMILES): C=C1C(=O)N(C)CC(O)N1C(=O)/C=C/C=C\CC(C)C (centres undefined)
Activity (Aspergillus ruber): inactive
Activity (Mycotypha microspora): inactive
Activity (Escherichia coli): inactive
Activity (Priestia megaterium): inactive
Activity (Microbotryum violaceum): inactive
